pEC50: −log10 of the molar value.
Experiments:
786-O cells [1] = assay: in vitro cell viability bioassay measuring cell metabolic activity (CellTiterGlo); format: cell-based, human; conditions: for IC20: ED20 (or lower, based on clinically attainable plasma concentrations), highest dose for combinatorial screening; for pEC50: 786-0, dose that inhibited 50% of cell viability vs control, 72 h treatment, read-out: ED50 (the source's name)
Procedure: Seeding density was 2-10×10^3cells/well, depending on the cell line's growth characteristics such that the control cells approach confluency at the time of the assay readout. Subsequently, cell viability was assessed using the CellTiterGlo® luminescence assay (Promega, Madison, Wis., USA) and cell viability was reported as the luminescence signal in the treated wells normalized to the signal in the DMSO treated control wells. Dose-response curves and IC50 values were determined in Graphpad Prism® using a four-parameter non-linear fit of the log transformed dose data of each compound.

786-O cells [2] = assay: mitosis live cell imaging (SiR-tubulin); format: cell-based, human; conditions: single drug alone
Procedure: In order to test whether C2 treatment affects cell division, this process was monitored by live cell imaging. 786-O cells were treated with 0.1% DMSO in the cell culture medium (CTRL) or C2 and stained with the live cell dye SiR-tubulin (microtubule marker) to label the mitotic spindle, monitor mitotic progression and detect any cytokinesis failure. All experiments were performed in the presence of Valspodar (4 μM), a multi-drug pump inhibitor that prevented SiR-tubulin removal from the cell (this concentration of Valspodar had no effect on the efficacy of C2). Live cells were recorded for 24 hours at a temporal resolution of 3 minutes (FIG. 7A).
20 points were taken per condition.

COLO-205 cells = assay: cell metabolic activity assay (CellTitre-Glo), CRC line; format: cell-based; conditions: COLO-205, CIN and high centrosome numbers
Procedure: C2 and the individual drugs present in C2 were assayed in a cell metabolic activity assay (CellTitre-Glo) where the bioluminescence was detected, to the following cell panel: two MIN (microsatellite instability) cell lines (HCT-116 and DLD1), two CIN (chromosomal instability) cell lines (SW480 and SW620), COLO205 (CIN and high centrosome numbers), HT29 (CIN and replication stress induced centriole dis-engagement), CCD841 (non-malignant colon cell line; negative control) and 786-O (renal carcinoma cell line; positive control).

Compound	pEC50 (786-O cells [1]; Homo sapiens)	IC20 (786-O cells [1]; Homo sapiens, 786-0, 72 h) [nM]	IC20 (786-O cells [1]) [nM]	effect on mitosis duration (786-O cells [2])	killing / toxicity (cell metabolic activity) (COLO-205 cells)
Cn1c(=O)n(-c2ccc(C(C)(C)C#N)cc2)c2c3cc(-c4cnc5ccccc5c4)ccc3ncc21 [BEZ-235]	7.05	20			
CC(=O)Nc1ccc(C(=O)Nc2ccccc2N)cc1 [CI-994, 4-(Acetylamino)-N-(2-aminophenyl)benzamide]	4.94	1000			
Cc1[nH]c2ccccc2c1CCNCc1ccc(/C=C/C(=O)NO)cc1 [LBH-589]	8.00	2			
O=C(CCCCCCC(=O)Nc1ccccc1)NO [SAHA]			1000		
CNC(=O)c1ccccc1Sc1ccc2c(/C=C/c3ccccn3)n[nH]c2c1 [axitinib]		200			
CNC(=O)c1cc(Oc2ccc(NC(=O)Nc3ccc(Cl)c(C(F)(F)F)c3)cc2)ccn1 [sorafenib]		10			

More lines, main results first:

pEC50 (786-O cells [1]; Homo sapiens)	Compound	IC20 (786-O cells [1]; Homo sapiens, 786-0, 72 h) [nM]	IC20 (786-O cells [1]) [nM]	effect on mitosis duration (786-O cells [2])	killing / toxicity (cell metabolic activity) (COLO-205 cells)
4.48	Cc1cc(Nc2cc(N3CCN(C)CC3)nc(Sc3ccc(NC(=O)C4CC4)cc3)n2)[nH]n1 [VX-680]	650			
7.00	Cc1nc(Nc2ncc(C(=O)Nc3c(C)cccc3Cl)s2)cc(N2CCN(CCO)CC2)n1 [dasatinib, N-(2-chloro-6-methylphenyl)-2-[[6-[4-(2-hydroxyethyl)piperazin-1-yl]-2-methylpyrimidin-4-yl]amino]-1,3-thiazole-5-carboxamide]	50			
5.18	C#Cc1cccc(Nc2ncnc3cc(OCCOC)c(OCCOC)cc23)c1 [erlotinib, N-(3-Ethynylphenyl)-6,7-bis(2-methoxyethoxy) quinazolin-4-amine]	2000		small delay in mitosis	
5.22	O=C(CCCCCCC(=O)Nc1ccc([C@H]2O[C@@H](CSc3nc(-c4ccccc4)c(-c4ccccc4)o3)C[C@@H](c3ccc(CO)cc3)O2)cc1)NO [tubacin, N-(4-{(2R,4R,6S)-4-{[(4,5-diphenyl-1,3-oxazol-2-yl)sulfanyl]methyl}is [4-(hydroxymethyl)phenyl]-1,3-dioxan-2-yl}phenyl)-N′-hydroxyoctanediamide]	2000		small delay in mitosis	partial toxicity

Source: patent US20220373535A1, “METHODS OF IDENTIFICATION OF SYNERGISTIC ANTI-CANCER MULTIDRUG COMBINATIONS AND USES THEREOF” (UNIVERSITE DE GENEVE, priority 2019, published 2022)
